Common to all, as to assay type: cell-based
Assay [1] relates to Rhizopus arrhizus (syn. R. oryzae) JMRC:SF:05857. Put plainly: spore inhibition test. The conditions noted are these: 48 h; start concentration 1 mg/ml (1o, 2o), 100 µg/ml (Amphotericin B). The method, then:
(§1) The following test organisms were used for their susceptibility to compounds 1o and 2o: Alternaria alternata JMRC:SF:09317, Arthroderma benhamiae JMRC:ST:35888, Aspergillus fumigatus JMRC:Afum:00073=ATCC 46645, Aspergillus terreus JMRC:SF:06307, Candida albicans JMRC:ST:35864, Lichtheimia corymbifera JMRC:SF:09682, Penicillium chrysogenum JMRC:SF:10137, Rhizopus arrhizus (syn. R. oryzae) JMRC:SF:05857=ATCC 56536, CBS 112.07.
(§2) Fungi were grown on 3% malt extract solidified medium for 1 to 2 weeks at room temperature. Then the plates were washed with 7 ml sterile distilled water, and the spore suspension was filtered through 4 layers of sterile Miracloth (Kalbiochem, USA) to remove the hyphae. The concentration of the spore suspension was set to 2 × 10^4 conidia ml^−1 for the in vitro assays.
(§3) The spore inhibition assay took place in 96-well microplates (flat base). 50 μl of the prepared spore suspension was seeded and then mixed with 50 μl of the respective inhibitor substance. Tests were started with end concentrations of 1 mg ml^−1 and were then reduced in a minimum of 10 halving steps. Thus a 2 mg ml^−1 stock solution diluted in half ten times with solvent (distilled water, 2% DMSO in distilled water, or 2% DMF in distilled water) and each 50 μl was transferred to 50 μl spore suspension. For each test substance, 12 holes on the microtiter plate were filled. After 24 h incubation (25 °C), the germination of the spores was macroscopically and microscopically examined directly in the microtiter plate via measurement of the optical density and light microscopy using an inverse stereomicroscope with subsequent photodocumentation, respectively. If necessary, the plates were further incubated for another 24 or 48 h, depending on the extent of fungal germination.

Assay [2] has as its system Alternaria alternata JMRC:SF:09317. Put plainly: spore inhibition test. The note with it: 48 h; start concentration 1 mg/ml (1o, 2o), 100 µg/ml (Amphotericin B). The method, then: as §1, §2, §3
Assay [3] has as its system Penicillium chrysogenum JMRC:SF:10137. Put plainly: spore inhibition test. The note with it: 48 h. The method, then:
as §1, §2, §3

Assay [4] concerns Pseudomonas aeruginosa JMRC:ST:33772. The experiment in a line: agar diffusion inhibition zone test. The conditions noted are these: 1o, ciprofloxacin 5 µg/ml, solvent DMSO 13P.
The test system of assay [5] is Staphylococcus aureus JMRC:ST:33793 (multi-resistant). Put plainly: agar diffusion inhibition zone test. The note with it: 1o, ciprofloxacin 5 µg/ml, solvent DMSO 12P.
For assay [6], the system named is Penicillium notatum JMRC:STI:50164. Put plainly: agar diffusion inhibition zone test. The conditions noted are these: 1o, 2o 1,000 µg/ml in DMSO, amphotericin B 10 µg/ml, solvent DMSO 13p.
The subject of assay [7] is Staphylococcus aureus JMRC:ST:10760. The experiment in a line: agar diffusion inhibition zone test. The conditions noted are these: 1o, ciprofloxacin 5 µg/ml, solvent DMSO 12P.
Assay [8] concerns Escherichia coli JMRC:ST:33699. The experiment in a line: agar diffusion inhibition zone test. The conditions noted are these: 1o, 2o 1,000 µg/ml in DMSO; ciprofloxacin 5 µg/ml; solvent DMSO 13P.
The subject of assay [9] is Sporobolomyces salmonicolor JMRC:ST:35974. The experiment in a line: agar diffusion inhibition zone test. The note with it: 1o, 2o 1,000 µg/ml in DMSO; amphotericin B 10 µg/ml; solvent DMSO 20p.
Assay [10] concerns Bacillus subtilis JMRC:STI:10880. Put plainly: agar diffusion inhibition zone test. The note with it: 1o, ciprofloxacin 5 µg/ml, solvent DMSO 12P.
Assay [11] deals with Mycobacterium vaccae JMRC:STI:10670. The experiment in a line: agar diffusion inhibition zone test. The note with it: 1o, 2o 1,000 µg/ml in DMSO; ciprofloxacin 5 µg/ml; solvent DMSO 13P.
The test system of assay [12] is Enterococcus faecalis JMRC:ST:33700 (Vancomycin-resistant). Put plainly: agar diffusion inhibition zone test. The conditions noted are these: 1o, ciprofloxacin 5 µg/ml, solvent DMSO 12P.
The mark [13] stands for this setting: start concentration 1 mg/ml (1o, 2o), 100 µg/ml (Amphotericin B).

This note sets out measurements from PMC5321741, “Arylmethylamino steroids as antiparasitic agents” (Nature Communications, 2017).

Take `COc1ccc2c(c1)CCC1C2CC[C@@]2(C)C1CC[C@H]2NCc1cc2ccccc2cc1O` (stereo partly drawn) [1o]: in assay [1], the “antifungal profile, 1st value = microscopic visualization-based observation, Rhizopus arrhizus” value was found to be 500 and the “antifungal profile, 2nd value = optical density-based observation, Rhizopus arrhizus” value came out at 500. Also, in assay [2], the “antifungal profile, 1st value = microscopic visualization-based observation, Alternaria alternata” value was determined as 500 and the “antifungal profile, 2nd value = optical density-based observation, Alternaria alternata” value was determined as 250. Also, the “antifungal profile, 2nd value = optical density-based observation, Penicillium chrysogenum” value in assay [3] (setting [13]) amounted to 125. In addition, the “antifungal profile, 1st value = microscopic visualization-based observation, Penicillium chrysogenum” value in assay [3] (start concentration 1 mg/ml, given in mg) was found to be 1 mg. Moreover, the “inhibition zone diameter, Pseudomonas aeruginosa JMRC:ST:33772 (B7)” value in assay [4] (2o 1,000 µg/ml in DMSO) is recorded as 0 mm. Also, the “inhibition zone diameter, MRSA Staph. aureus (R9)” value in assay [5] (2o 1,000 µg/ml in DMSO) is recorded as 0 mm. Moreover, the “inhibition zone diameter, Penicillium notatum (P1)” value in assay [6] was determined as 0 mm. Further, the “inhibition zone diameter, Staphylococcus aureus (B3)” value in assay [7] (2o 1,000 µg/ml in DMSO) is recorded as 0 mm. Further, the “inhibition zone diameter, Escherichia coli (B4)” value in assay [8] was 15P. Further, in assay [9], the “inhibition zone diameter, Sporobolo. salmonicolor (H4)” value was found to be 22p. Moreover, the “inhibition zone diameter, Bacillus subtilis (B1)” value in assay [10] (2o 1,000 µg/ml in DMSO) is 0 mm. In addition, in assay [11], the “inhibition zone diameter, Mycobac. vaccae (M4)” value amounted to 18p. Also, the “inhibition zone diameter, VRSA Enteroc. faecalis (R10)” value in [12] (2o 1,000 µg/ml in DMSO) is given as 0 mm.
On to `COc1ccc2c(c1)CCC1C2CC[C@@]2(C)C1CC[C@@H]2NCc1cc2ccccc2cc1O` (stereo partly drawn) [2o], for which the “antifungal profile, 1st value = microscopic visualization-based observation, Rhizopus arrhizus” value in [1] is recorded as 500. Further, the “antifungal profile, 2nd value = optical density-based observation, Rhizopus arrhizus” value in assay [1] is 500. Further, the “antifungal profile, 1st value = microscopic visualization-based observation, Alternaria alternata” value in [2] is 125. The “antifungal profile, 2nd value = optical density-based observation, Alternaria alternata” value in assay [2] was 15,6. Further, the “antifungal profile, 1st value = microscopic visualization-based observation, Penicillium chrysogenum” value in [3] (setting [13]) is 250. For the same compound, the “antifungal profile, 2nd value = optical density-based observation, Penicillium chrysogenum” value in assay [3] (setting [13]) is 125. Besides, the zone of inhibition is 0 mm in assay [4] (Pseudomonas aeruginosa, read-out: inhibition zone diameter, Pseudomonas aeruginosa JMRC:ST:33772 (B7)); 0 mm in [5] (Staphylococcus aureus, MRSA, read-out: inhibition zone diameter, MRSA Staph. aureus (R9)); 0 mm in assay [7] (Staphylococcus aureus, read-out: inhibition zone diameter, Staphylococcus aureus (B3)); 0 mm in [10] (Bacillus subtilis, read-out: inhibition zone diameter, Bacillus subtilis (B1)); 0 mm in assay [12] (read-out: inhibition zone diameter, VRSA Enteroc. faecalis (R10)). The zone of inhibition at 1000 µg/mL in assay [6] (Penicillium chrysogenum, read-out: inhibition zone diameter, Penicillium notatum (P1)) turned out to be 0 mm. Moreover, in [8], the “inhibition zone diameter, Escherichia coli (B4)” value amounted to 16P. The “inhibition zone diameter, Sporobolo. salmonicolor (H4)” value in [9] was determined as 24p. Further, in assay [11], the “inhibition zone diameter, Mycobac. vaccae (M4)” value is given as 17p.
